Tests used:
advanced solid tumor = settings: 5-AC 20 – 25 mg/m^2 daily for 10 days; cited from earlier work
DNMT = settings: plasma concentration reached only with 5-AC 75 mg/m^2/d; cited from earlier work
Epstein Barr Virus (EBV) = test: EBV viral load in PBMC by real-time PCR; format: in vivo, human; settings: after 5-AC treatment
[1] = system: DNA methyltransferase (DNMT); test: DNA methyltransferase enzyme activity in paired tumor biopsies; format: in vivo, human; settings: one patient with hepatocellular carcinoma; 5-AC 15 mg/m^2/d for 14 days
[2] = Plasma pharmacokinetics of PB and metabolites PA and PG; settings: PB continuous infusion over 24 hours, 400 mg/kg/d, Overall
[3] = intravenous administration for 5 days, refractory solid tumors; cited from earlier work
G1/G0 growth arrest = settings: cited from earlier work
[4] = human, in vivo, 400 mg/kg/day
[5] = system: acetylated histones H3 and H4; test: Histone H3 or H4 acetylation in PBMC, summary over patients; format: in vivo, human
[6] = Toxicity in patients, graded by NCI CTC version 2.0; format: in vivo, human

Nc1ncn([C@@H]2O[C@H](CO)[C@@H](O)[C@H]2O)c(=O)n1 [5-AC, 5-azacytidine]
duration of stable disease (advanced solid tumor): 4 – 8 months
concentration shown in vitro to cause DNMT inhibition (DNMT): 5 µM
patients with reduced viral load (Epstein Barr Virus (EBV)): Three
inhibition of DNMT activity [1]: 75% and about 75%

O=C(O)Cc1ccccc1 [PA, phenylacetic acid]
Tmax ([2]; mean (range)): 25.30 (23.83–27.98) h
AUC[INF] ([2]; mean ± SD): 26680 ± 11236 µM·h
Cl ([2]; mean ± SD): 9.5 ± 7.6 L/h
Cmax ([2]; plasma, mean ± SD): 1400 ± 504 µM

O=C([O-])CCCc1ccccc1.[Na+] [PB, sodium phenylbutyrate]
maximum tolerated dose [3]: 410 mg/kg/day
time to G1/G0 growth arrest (G1/G0 growth arrest): ≤ 96 h
Vd [4]: 14.0 ± 8.0 L
patients with increased acetylation ([5]; PB infused for just 24 hours, Four of 8 patients): 50%
patients with increased acetylation ([5]; dose schedule B, PB infused for 7 days, 3 of 5 patients): 60%
confusion, G 3 (CTC grade 3), patients ([6]; human, in vivo): 1
patients with neuro-cortical toxicity attributable to PB ([6]; of 27 patients, PB 400 mg/kg/day, intermittent or continuous 7 day infusion): 3
